Values of other authors in paper PMC2908260 (Journal of nuclear medicine : official publication, Society …, 2010).

Conditions: other ^18F-labeled octreotide analogues

Substance: N^α-(1-deoxy-D-fructosyl)-N^ε-(2-[^18F]fluoropropionyl)-Lys^0-Tyr^3octreotate [[^18F]FP-Gluc-TOCA]
- log P: −1.70 ± 0.02
